How the values were obtained:
[1] = tested on: rat; conditions: Prenatal developmental toxicity study, sprague dawley, Oral, Gavage/Intubation, dose end: 15 GD
[2] = tested on: rat; conditions: Prenatal developmental toxicity study, sprague dawley, Oral, Gavage/Intubation, dose end: 19 GD
[3] = tested on: rat; conditions: Multigenerational reproductive toxicity study, sprague dawley, Oral, Feed, dose end: 2 generation
[4] = tested on: rat; conditions: Prenatal developmental toxicity study, long evans, Oral, Gavage/Intubation, dose end: 15 GD
[5] = tested on: rat; conditions: Prenatal developmental toxicity study, sprague dawley, Oral, Gavage/Intubation, dose end: 15 GD; remark: listed apart in the source
[6] = tested on: rat; conditions: Prenatal developmental toxicity study, sprague dawley, Oral, Gavage/Intubation, dose end: 15 GD; remark: listed apart in the source
[7] = tested on: dog; conditions: Chronic toxicity, beagle, Oral, Feed, dose end: 104 week
[8] = tested on: rabbit; conditions: Prenatal developmental toxicity study, new zealand white, Oral, Gavage/Intubation, dose end: 18 GD
[9] = tested on: rat; conditions: Prenatal developmental toxicity study, sprague dawley, Injection, Intraperitoneal, dose end: 15 GD
[10] = tested on: rat; conditions: Sub-acute repeat dose toxicity, sprague dawley, Oral, Gavage/Intubation, dose end: 28 day
[11] = tested on: rat; conditions: Prenatal developmental toxicity study, sprague dawley, Oral, Gavage/Intubation, dose end: 15 GD; remark: listed apart in the source
[12] = tested on: rat; conditions: Prenatal developmental toxicity study, sprague dawley, Oral, Gavage/Intubation, dose end: 15 GD; remark: listed apart in the source
[13] = tested on: rabbit; conditions: Prenatal developmental toxicity study, new zealand white, Oral, Gavage/Intubation, dose end: 18 GD; remark: listed apart in the source
[14] = tested on: rat; conditions: Multigenerational reproductive toxicity study, sprague dawley, Oral, Feed, dose end: 2 generation; remark: listed apart in the source
[15] = group: developmental, developmental / developmental malformation / bone / ossification sites + developmental / developmental malformation / bone / unossified + …
[16] = group: maternal, systemic / in life observation / body weight / body weight gain + systemic / in life observation / clinical signs / labored respiration + …
[17] = group: developmental, developmental / developmental malformation / bone / unossified
[18] = group: maternal, reproductive / reproductive performance / postimplantation loss / postimplantation loss + reproductive / reproductive performance / …
[19] = group: offspring, systemic / in life observation / body weight / offspring (pup) weight gain
[20] = group: parental, systemic / in life observation / body weight / body weight + systemic / in life observation / body weight / body weight gain + systemic / in…
[21] = group: reproductive, reproductive / reproductive performance / fertility / fertility + reproductive / reproductive performance / mating / mating
[22] = group: developmental, developmental / developmental malformation / placenta / size + systemic / in life observation / body weight / fetal weight
[23] = group: maternal, systemic / in life observation / body weight / body weight gain
[24] = group: developmental, developmental / developmental malformation / bone / incomplete ossification
[25] = group: maternal, systemic / in life observation / body weight / body weight gain + systemic / in life observation / food consumption / food consumption + …
[26] = group: developmental, developmental / developmental malformation / bone / delayed ossification + systemic / in life observation / body weight / fetal weight
[27] = group: maternal, systemic / organ weight / liver / nos + reproductive / reproductive performance / resorptions / resorptions + systemic / in life observation…
[28] = group: cholinesterase, cholinesterase / cholinesterase / cholinesterase / plasma cholinesterase (che) + cholinesterase / cholinesterase / cholinesterase / brain …
[29] = group: systemic, systemic / clinical chemistry / alkaline phosphatase (alp/alk) / alkaline phosphatase (alp/alk)
[30] = group: cholinesterase, cholinesterase / cholinesterase / cholinesterase / brain (regional) cholinesterase (che) + cholinesterase / cholinesterase / cholinesterase…
[31] = group: developmental, developmental / developmental malformation / bone / [other]
[32] = group: maternal, systemic / in life observation / body weight / body weight + systemic / in life observation / body weight / body weight gain + systemic / in…
[33] = group: developmental, systemic / in life observation / body weight / fetal weight
[34] = group: maternal, systemic / in life observation / clinical signs / [other] + systemic / in life observation / clinical signs / altered breathing rate + …
[35] = group: maternal, reproductive / reproductive performance / estrous cycle / abnormal
[36] = group: systemic, systemic / clinical chemistry / alanine aminotransferase (alt/sgpt) / alanine aminotransferase (alt/sgpt) + systemic / clinical chemistry / …
[37] = group: systemic, systemic / organ weight / uterus / relative to body weight + systemic / organ weight / seminal vesicle / relative to body weight
[38] = group: developmental, developmental / developmental malformation / bone / enlarged fontanel + developmental / developmental malformation / bone / incomplete …
[39] = group: maternal, systemic / in life observation / clinical signs / motor activity + systemic / in life observation / clinical signs / respiration (rales) + …
[40] = group: developmental, developmental / developmental malformation / bone / full supernumerary + developmental / developmental malformation / diaphragm / …
[41] = group: maternal, systemic / in life observation / body weight / body weight gain + systemic / in life observation / clinical signs / discharge on cageboard…
[42] = group: developmental, developmental / developmental malformation / bone / full supernumerary + developmental / developmental malformation / bone / incomplete …
[43] = group: maternal, reproductive / reproductive performance / postimplantation loss / postimplantation loss + systemic / in life observation / clinical signs / …
[44] = group: offspring, developmental / offspring survival late / lactation index / lactation index + developmental / offspring survival late / viability index / …
[45] = group: parental, systemic / in life observation / body weight / body weight + systemic / in life observation / body weight / body weight gain

Work on `O=Cc1ccccc1C=O` [1,2-Benzenedicarboxaldehyde] yielded an LEL [1, 15] of 40 mg/kg/day, an LOAEL [1, 15] of 40 mg/kg/day and an NEL [1, 15] of 20 mg/kg/day. For the same compound, the NOAEL [1, 15] was 20 mg/kg/day, the LEL [1, 16] was 10 mg/kg/day and the LOAEL [1, 16] was 10 mg/kg/day. The NEL [1, 16] was < 10 mg/kg/day and the NOAEL [1, 16] was < 10 mg/kg/day.

For `CC#N` [Acetonitrile], the LEL [2, 17] was 275 mg/kg/day, the LOAEL [2, 17] was > 275 mg/kg/day and the NEL [2, 17] was 190 mg/kg/day. The NOAEL [2, 17] was ≥ 275 mg/kg/day, the LEL [2, 18] was 275 mg/kg/day and the LOAEL [2, 18] was > 275 mg/kg/day. For the same compound, the NEL [2, 18] was 190 mg/kg/day and the NOAEL [2, 18] was ≥ 275 mg/kg/day.

`CC(C)(NC(=O)NCc1ccccc1Cl)c1ccccc1` [Cumyluron] showed an LEL [3, 19] of 297 mg/kg/day, an LOAEL [3, 19] of 297 mg/kg/day and an NEL [3, 19] of 54 mg/kg/day. It also gave an NOAEL [3, 19] of 54 mg/kg/day, an LEL [3, 20] of 297 mg/kg/day and an LOAEL [3, 20] of 297 mg/kg/day. The NEL [3, 20] was 54 mg/kg/day, the NOAEL [3, 20] was 54 mg/kg/day and the LEL [3, 21] was 297 mg/kg/day. The LOAEL [3, 21] was 297 mg/kg/day, the NEL [3, 21] was 54 mg/kg/day and the NOAEL [3, 21] was 54 mg/kg/day.

With `NC1CCCCC1` [Cyclohexylamine] the LEL [4, 22] was 100 mg/kg/day, the LOAEL [4, 22] was > 100 mg/kg/day and the NEL [4, 22] was 30 mg/kg/day. For the same compound, the NOAEL [4, 22] was ≥ 100 mg/kg/day, the LEL [4, 23] was 100 mg/kg/day and the LOAEL [4, 23] was > 100 mg/kg/day. For the same compound, the NEL [4, 23] was 30 mg/kg/day and the NOAEL [4, 23] was ≥ 100 mg/kg/day.

For `CCCCCCC(C)OC(=O)COc1nc(F)c(Cl)c(N)c1Cl` (stereo not drawn) [Fluroxypyr-meptyl], the LEL [5, 24] was > 600 mg/kg/day, the LOAEL [5, 24] was > 600 mg/kg/day and the NEL [5, 24] was ≥ 600 mg/kg/day. For the same compound, the NOAEL [5, 24] was ≥ 600 mg/kg/day, the LEL [5, 25] was 600 mg/kg/day and the LOAEL [5, 25] was 600 mg/kg/day. It also gave an NEL [5, 25] of 300 mg/kg/day and an NOAEL [5, 25] of 300 mg/kg/day.

With `CC1(C)OC(c2ccco2)CN1C(=O)C(Cl)Cl` (stereo not drawn) [Furilazole] the LEL [6, 26] was 175 mg/kg/day, the LOAEL [6, 26] was > 175 mg/kg/day and the NEL [6, 26] was 75 mg/kg/day. The NOAEL [6, 26] was ≥ 175 mg/kg/day, the LOAEL ([6]; group: maternal, systemic / organ weight / liver / nos) was 75 mg/kg/day and the LEL ([6]; group: maternal, systemic / organ weight / liver / nos + reproductive / reproductive performance / resorptions / resorptions) was 75 mg/kg/day. For the same compound, the NEL [6, 27] was 10 mg/kg/day and the NOAEL [6, 27] was 10 mg/kg/day.

With `CCOP(=S)(NC(C)C)Oc1ccccc1C(=O)OC(C)C` (stereo not drawn) [Isofenphos] the LOAEL ([7]; group: cholinesterase, cholinesterase / cholinesterase / cholinesterase / plasma cholinesterase (che)) was 0.45 mg/kg/day, the NEL [7, 28] was 0.09 mg/kg/day and the NOAEL [7, 28] was 0.09 mg/kg/day. For the same compound, the LEL ([7]; group: cholinesterase, cholinesterase / cholinesterase / cholinesterase / plasma cholinesterase (che) + cholinesterase / cholinesterase / cholinesterase / …) was 0.45 mg/kg/day, the LEL [7, 29] was 3.43 mg/kg/day and the LOAEL [7, 29] was > 3.43 mg/kg/day. The NEL [7, 29] was 0.53 mg/kg/day, the NOAEL [7, 29] was ≥ 3.43 mg/kg/day and the LEL [8, 30] was 1.25 mg/kg/day. The LOAEL [8, 30] was 1.25 mg/kg/day, the NEL [8, 30] was 0.25 mg/kg/day and the NOAEL [8, 30] was 0.25 mg/kg/day. The LEL [8, 31] was 7.5 mg/kg/day, the LOAEL [8, 31] was > 7.5 mg/kg/day and the NEL [8, 31] was 1.25 mg/kg/day. For the same compound, the NOAEL [8, 31] was ≥ 7.5 mg/kg/day, the LEL [8, 32] was 7.5 mg/kg/day and the LOAEL [8, 32] was 7.5 mg/kg/day. It also gave an NEL [8, 32] of 1.25 mg/kg/day and an NOAEL [8, 32] of 1.25 mg/kg/day.

For `CC(C)NCC(O)c1ccc(O)c(O)c1.Cl` (stereo not drawn) [Isoproterenol hydrochloride], the LEL [9, 33] was 20 mg/kg/day, the LOAEL [9, 33] was > 80 mg/kg/day and the NEL [9, 33] was < 20 mg/kg/day. For the same compound, the NOAEL [9, 33] was ≥ 80 mg/kg/day, the LEL [9, 34] was 20 mg/kg/day and the LOAEL [9, 34] was > 80 mg/kg/day. For the same compound, the NEL [9, 34] was < 20 mg/kg/day and the NOAEL [9, 34] was ≥ 80 mg/kg/day.

In the case of `CC(=O)N1CCN(c2ccc(OC[C@@H]3CO[C@@](Cn4ccnc4)(c4ccc(Cl)cc4Cl)O3)cc2)CC1` [Ketoconazole], the LEL [10, 35] was 100 mg/kg/day, the LOAEL [10, 35] was > 100 mg/kg/day and the NEL [10, 35] was 25 mg/kg/day. For the same compound, the NOAEL [10, 35] was ≥ 100 mg/kg/day, the LOAEL [10, 36] was > 100 mg/kg/day and the NOAEL [10, 36] was ≥ 100 mg/kg/day. The LEL [10, 37] was 6.25 mg/kg/day and the NEL [10, 37] was < 6.25 mg/kg/day.

With `CC1COC(=O)O1` (stereo not drawn) [Propylene carbonate] the LEL [11, 38] was 5000 mg/kg/day, the LOAEL [11, 38] was 5000 mg/kg/day and the NEL [11, 38] was 3000 mg/kg/day. For the same compound, the NOAEL [11, 38] was 3000 mg/kg/day, the LEL [11, 39] was 3000 mg/kg/day and the LOAEL [11, 39] was 3000 mg/kg/day. It also gave an NEL [11, 39] of 1000 mg/kg/day and an NOAEL [11, 39] of 1000 mg/kg/day.

For `CCCCOCCOC(=O)COc1nc(Cl)c(Cl)cc1Cl` [Triclopyr-butotyl], the LEL [12, 40] was 300 mg/kg/day, the LOAEL [12, 40] was > 300 mg/kg/day and the NEL [12, 40] was 100 mg/kg/day. The NOAEL [12, 40] was ≥ 300 mg/kg/day, the LEL [12, 23] was 30 mg/kg/day and the LOAEL [12, 41] was > 300 mg/kg/day. For the same compound, the NEL [12, 41] was 5 mg/kg/day, the NOAEL [12, 41] was ≥ 300 mg/kg/day and the LEL [13, 42] was 100 mg/kg/day. For the same compound, the LOAEL [13, 42] was 100 mg/kg/day, the NEL [13, 42] was 30 mg/kg/day and the NOAEL [13, 42] was 30 mg/kg/day. It also gave an LEL [13, 43] of 100 mg/kg/day, an LOAEL [13, 43] of 100 mg/kg/day and an NEL [13, 43] of 30 mg/kg/day. It also gave an NOAEL [13, 43] of 30 mg/kg/day.

`CCOC(=O)C1CC(=O)C(=C(O)C2CC2)C(=O)C1` (stereo not drawn) [Trinexapac-ethyl] gave an LEL [14, 44] of 1250 mg/kg/day, an NEL [14, 44] of 592 mg/kg/day and an LEL [14, 45] of 592 mg/kg/day. It also gave an LOAEL [14, 45] of 592 mg/kg/day, an NEL [14, 20] of 59.1 mg/kg/day and an NOAEL [14, 20] of 59.1 mg/kg/day.

— EPA's ToxRefDB 2
